Patent US20070231374A1, “Composition Comprising Ether Lipid” (priority 2003, published 2007)

Key:
[1] = stated as known; cited from earlier work
[2] = Phase diagram of GEO/water mixtures (polarising microscope, small angle x-ray diffraction); format: physicochemical; settings: mixtures with water, FIG. 1
Protocol: Mixtures of glyceryl-1-monooleate ether (GEO) with water were prepared, shaken and allowed to equilibrate at a known temperature. The phase(s) of the resulting mixture were examined under the polarising microscope and by small angle x-ray diffraction.
At higher water content, both the L2 and the HII phases were stable in the presence of excess water.

## CCCCCCCC/C=C\CCCCCCCC(=O)OCC(O)CO (stereo not drawn) [GMO, glyceryl monooleate]
[1]
  stable phase in excess water: reversed cubic

## CCCCCCCC/C=C\CCCCCCCCOCC(O)CO (stereo not drawn) [GEO, Glyceryl-1-monooleate ether]
[2]
  water concentration at which reversed hexagonal (HII) phase forms: > 15%
[1]
  stable phase in excess water: reversed hexagonal
